Data taken from US20100216779A1 (GLAXOSMITHKLINE LLC, priority 2007, published 2010).

Experiments:
Type in all cases: cell-based
COLO205 (colon) = test: Inhibition of cell proliferation, CellTiter-Glo, COLO205; details: Homo sapiens, COLO 205, 72 h
Summary of the method: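 Exponentially growing COLO205 cells in medium with 10% FBS were plated below 2000 cells/well at 37 °C, 5% CO2. Untreated wells served as controls.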

[1] = system: NCI-H929 (multiple myeloma); test: Inhibition of cell proliferation, CellTiter-Glo, NCI-H929; details: Homo sapiens, 72 h
Method: C. Inhibition of Cell Proliferation
Cell proliferation was measured by either CellTiter-Glo (measures cellular ATP level as a surrogate for total cell number) or by InCell analyzer (counts number of nuclei as a measure of cell number). For CellTiter-Glo assay, exponentially growing cell lines of different tumor origins, cultured in appropriate media containing 10% fetal bovine serum at 37° C. in a 5% CO2 incubator, were plated at low density (less than 2000 cells/well) in 96-well plates. Twenty four hours post-plating, cells were treated with different concentrations of test compounds ranging from 30 uM to 1.5 nM. Several wells were left untreated as a control. Seventy two hours post-treatment, cell numbers were determined using 50-100 ul per well of CellTiter-Glo (Promega #G7573). Plates were incubated at 37° C. for 30 minutes and the chemiluminescent signal was read on the Victor V or Envison 2100 reader. […]

[2] = molecular target: T1, human IGF-1R (NIH-3T3 cells over expressing human IGF-1R) (Homo sapiens, UniProt P08069); test: IGF-1R cellular autophosphorylation (DELFIA); details: IGF-1 stimulated
T1 construct: expressed in transfected cells; host or cells: NIH-3T3 (mouse fibroblasts)
T1 sequence (P08069 31-1367): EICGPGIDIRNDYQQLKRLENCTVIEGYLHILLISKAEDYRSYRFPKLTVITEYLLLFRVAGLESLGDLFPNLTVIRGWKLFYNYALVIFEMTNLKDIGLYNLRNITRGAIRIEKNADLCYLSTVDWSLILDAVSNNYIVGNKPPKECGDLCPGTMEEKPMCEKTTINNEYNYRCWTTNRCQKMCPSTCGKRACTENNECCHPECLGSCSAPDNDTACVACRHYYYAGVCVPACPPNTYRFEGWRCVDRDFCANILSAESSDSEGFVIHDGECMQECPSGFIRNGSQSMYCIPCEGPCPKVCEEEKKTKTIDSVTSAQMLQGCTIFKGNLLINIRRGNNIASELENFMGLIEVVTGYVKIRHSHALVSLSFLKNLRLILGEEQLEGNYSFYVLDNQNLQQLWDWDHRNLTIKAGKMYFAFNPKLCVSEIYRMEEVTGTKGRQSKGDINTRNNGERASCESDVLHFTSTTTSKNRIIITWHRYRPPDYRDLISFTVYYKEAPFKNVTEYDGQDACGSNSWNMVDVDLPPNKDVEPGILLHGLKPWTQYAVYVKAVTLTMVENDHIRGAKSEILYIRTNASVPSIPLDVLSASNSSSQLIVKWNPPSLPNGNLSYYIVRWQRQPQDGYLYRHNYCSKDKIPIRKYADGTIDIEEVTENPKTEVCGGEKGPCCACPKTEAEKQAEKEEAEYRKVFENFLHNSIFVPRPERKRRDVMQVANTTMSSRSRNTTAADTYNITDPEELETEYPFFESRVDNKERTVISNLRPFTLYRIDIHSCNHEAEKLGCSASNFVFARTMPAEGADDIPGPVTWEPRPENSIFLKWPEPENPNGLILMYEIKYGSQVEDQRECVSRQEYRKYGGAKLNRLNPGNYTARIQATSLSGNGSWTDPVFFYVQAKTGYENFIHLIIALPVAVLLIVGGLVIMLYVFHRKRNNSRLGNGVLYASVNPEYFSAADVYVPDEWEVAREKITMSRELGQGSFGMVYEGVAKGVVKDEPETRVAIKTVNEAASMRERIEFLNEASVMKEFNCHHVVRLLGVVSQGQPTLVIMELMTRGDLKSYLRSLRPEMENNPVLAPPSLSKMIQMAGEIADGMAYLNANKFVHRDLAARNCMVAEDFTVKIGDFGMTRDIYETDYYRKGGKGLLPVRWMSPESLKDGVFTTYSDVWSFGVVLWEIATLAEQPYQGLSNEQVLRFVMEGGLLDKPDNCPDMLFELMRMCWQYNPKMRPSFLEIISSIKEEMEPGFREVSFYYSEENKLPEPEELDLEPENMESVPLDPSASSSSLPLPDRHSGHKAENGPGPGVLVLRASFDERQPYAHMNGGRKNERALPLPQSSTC
Summary of the method: (§1)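 Read-out: DELFIA on lysates, receptor-specific capture antibody plus europium-labelled anti-phosphotyrosine, reported as % of IGF-1- or insulin-stimulated signal. Transfected NIH-3T3 cells got compound (30 uM–1.5 nM, 2 h) before a 15 min ligand pulse: IGF-1 30 ng/mL for IGF-1R, insulin 3 ug/mL for IR.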

[3] = molecular target: T2, IR (NIH-3T3 cells over expressing human IGF-1R or IR) (Homo sapiens, UniProt P06213); test: IR cellular autophosphorylation (DELFIA); details: NIH-3T3 cells over expressing IR, insulin stimulated
T2 construct: expressed in transfected cells; host or cells: NIH-3T3 (mouse fibroblasts)
T2 sequence (P06213 28-1382): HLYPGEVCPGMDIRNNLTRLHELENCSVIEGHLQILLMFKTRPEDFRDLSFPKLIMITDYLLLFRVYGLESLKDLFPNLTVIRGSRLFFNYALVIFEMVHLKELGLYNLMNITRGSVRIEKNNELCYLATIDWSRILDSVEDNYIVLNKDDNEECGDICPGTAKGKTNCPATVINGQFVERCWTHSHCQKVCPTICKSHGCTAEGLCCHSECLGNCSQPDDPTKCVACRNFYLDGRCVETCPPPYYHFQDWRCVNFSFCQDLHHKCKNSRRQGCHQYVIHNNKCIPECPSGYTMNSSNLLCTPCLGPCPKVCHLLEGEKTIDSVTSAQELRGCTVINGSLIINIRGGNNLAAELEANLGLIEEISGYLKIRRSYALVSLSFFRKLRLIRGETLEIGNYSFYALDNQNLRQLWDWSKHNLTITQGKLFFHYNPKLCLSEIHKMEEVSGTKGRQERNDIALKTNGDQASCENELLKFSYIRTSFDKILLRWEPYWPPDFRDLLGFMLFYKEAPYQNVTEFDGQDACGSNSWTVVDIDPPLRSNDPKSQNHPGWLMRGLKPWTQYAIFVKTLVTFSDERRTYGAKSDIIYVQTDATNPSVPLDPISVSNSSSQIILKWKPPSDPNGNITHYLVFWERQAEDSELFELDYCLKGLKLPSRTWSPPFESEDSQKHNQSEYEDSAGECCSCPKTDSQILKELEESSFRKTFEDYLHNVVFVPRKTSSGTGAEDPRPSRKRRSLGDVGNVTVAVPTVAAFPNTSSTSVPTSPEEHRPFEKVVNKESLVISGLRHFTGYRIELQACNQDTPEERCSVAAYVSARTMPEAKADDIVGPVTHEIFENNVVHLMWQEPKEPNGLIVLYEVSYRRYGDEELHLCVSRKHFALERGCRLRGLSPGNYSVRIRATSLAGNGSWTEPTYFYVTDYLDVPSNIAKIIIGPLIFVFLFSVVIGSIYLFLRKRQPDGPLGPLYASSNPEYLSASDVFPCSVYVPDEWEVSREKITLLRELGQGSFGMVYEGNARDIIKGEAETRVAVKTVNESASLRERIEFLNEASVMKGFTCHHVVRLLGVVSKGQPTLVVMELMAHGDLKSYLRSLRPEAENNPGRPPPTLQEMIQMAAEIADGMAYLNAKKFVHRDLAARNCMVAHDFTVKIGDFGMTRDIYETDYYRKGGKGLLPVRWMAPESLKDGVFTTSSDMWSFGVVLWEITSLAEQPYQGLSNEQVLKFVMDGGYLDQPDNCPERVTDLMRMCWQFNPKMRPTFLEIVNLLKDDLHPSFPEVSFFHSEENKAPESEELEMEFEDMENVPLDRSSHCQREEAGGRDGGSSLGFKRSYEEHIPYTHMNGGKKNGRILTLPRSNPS
Summary of the method: as §1

SMILES | IC50 (COLO205 (colon)) [nM] | IC50 [1] [nM] | IC50 [2] [nM] | IC50 [3] [nM]
CN(C)CCOc1cccc(Nc2nccc(-c3c(-c4cccc(C(=O)Nc5c(F)cc(F)cc5F)c4)nc4ccccn34)n2)c1 [Example 12, 3-(3-{2-[(3-{[2-(dimethylamino)ethyl]oxy}phenyl)amino]-4-pyrimidinyl}imidazo[1,2-a]pyridin-2-yl)-N-(2,4,6-trifluorophenyl)benzamide] | 250 to 1000 | < 250 | 100 to 500 | –
CCCc1cc(N2CCC(N3CCCCC3)CC2)ccc1Nc1nccc(-c2c(-c3cccc(C(=O)Nc4c(F)cccc4F)c3)nc3ccccn23)n1 [Example 41, 3-[3-(2-{[4-(1,4′-bipiperidin-1′-yl)-2-propylphenyl]amino}-4-pyrimidinyl)imidazo[1,2-a]pyridin-2-yl]-N-(2,6-difluorophenyl)benzamid] | 250 to 1000 | 250 to 1000 | < 100 | 100 to 500
CC(C)Cc1cc(N2CCC(N3CCCCC3)CC2)ccc1Nc1nccc(-c2c(-c3cccc(C(=O)Nc4c(F)cccc4F)c3)nc3ccccn23)n1 [Example 42, 3-[3-(2-{[4-(1,4′-bidideridin-1′-yl)-2-(2-methylpropyl)phenyl]amino}-4-pyrimidinyl)imidazo[1,2-a]pyridin-2-yl]-N-(2,6-difluorophenyl)benzamide] | > 1000 | > 1000 | < 100 | > 500
COc1cc(N2CCC(N3CCCN(C)CC3)CC2)ccc1Nc1nccc(-c2c(-c3cccc(C(=O)Nc4c(F)cccc4F)c3)nc3ccccn23)n1 [Example 48, N-(2,6-difluorophenyl)-3-[3-(2-{[4-[4-(4-methylhexahydro-1H-1,4-diazepin-1-yl)-1-piperidinyl}-2-(methyloxy)phenyl]amino}-4-pyrimidinyl)imidazo[1,2-a]pyridin-2-yl]benzamide] | 250 to 1000 | 250 to 1000 | < 100 | 100 to 500
COCCN(CCOC)C1CCN(c2ccc(Nc3nccc(-c4c(-c5cccc(C(=O)Nc6c(F)cccc6F)c5)nc5ccccn45)n3)c(OC)c2)CC1 [Example 49, 3-[3-(2-{[4-(4-{bis[2-(methyloxy)ethyl]amino}-1-piperidinyl)-2-(methyloxy)phenyl]amino}-4-pyrimidinyl)imidazo[1,2-a]pyridin-2-yl]-N-(2,6-difluorophenyl)benzamide] | 250 to 1000 | 250 to 1000 | 100 to 500 | < 100
COc1cc(N2CCC(N3CCC(F)CC3)CC2)ccc1Nc1nccc(-c2c(-c3cccc(C(=O)Nc4c(F)cccc4F)c3)nc3ccccn23)n1 [Example 51, N-(2,6-difluorophenyl)-3-[3-(2-{[4-(4-fluoro-1,4′-bipiperidin-1′-yl)-2-(methyloxy)phenyl]amino}-4-pyrimidinyl)imidazo[1,2-a]pyridin-2-yl]benzamide] | 250 to 1000 | 250 to 1000 | < 100 | 100 to 500
COc1cc(N2CCC(N3CCC(C(F)(F)F)CC3)CC2)ccc1Nc1nccc(-c2c(-c3cccc(C(=O)Nc4c(F)cccc4F)c3)nc3ccccn23)n1 [Example 52, N-(2,6-difluorophenyl)-3-{3-[2-({2-(methyloxy)-4-[4-(trifluoromethyl)-1,4′-bipiperidin-1′-yl]phenyl}amino)-4-pyrimidinyl]imidazo[1,2-a]pyridin-2-yl}benzamide] | 250 to 1000 | 250 to 1000 | < 100 | 100 to 500
COc1cc(N2CCC(N3CCN(CCF)CC3)CC2)ccc1Nc1nccc(-c2c(-c3cccc(C(=O)Nc4c(F)cccc4F)c3)nc3c(C)cccn23)n1 [Example 60, N-(2,6-difluorophenyl)-3-[3-(2-{[4-{4-[4-(2-fluoroethyl)-1-piperazinyl]-1-piperidinyl}-2-(methyloxy)phenyl]amino}-4-pyrimidinyl)-8-methylimidazo[1,2-a]pyridin-2-yl]benzamide] | 250 to 1000 | 250 to 1000 | < 100 | < 100

Results, then the compound that gave them:

IC50 (COLO205 (colon)) [nM] | IC50 [1] [nM] | IC50 [2] [nM] | IC50 [3] [nM] | SMILES
> 1000 | > 1000 | > 500 | > 500 | COc1c(Nc2nccc(-c3c(-c4cccc(C(=O)Nc5c(F)cccc5F)c4)nc4ccccn34)n2)ccc(N2CCC(N3CCCCC3)CC2)c1C [Example 54, 3-[3-(2-{[4-(1,4′-bipiperidin-1′-yl)-3-methyl-2-(methyloxy)phenyl]amino}-4-pyrimidinyl)imidazo[1,2-a]pyridin-2-yl]-N-(2,6-difluorophenyl)benzamide]
> 1000 | > 1000 | 100 to 500 | > 500 | COc1ccc(-c2nc3ccccn3c2-c2ccnc(Nc3ccc(N4CCC(N5CCCCC5)CC4)c(C)c3OC)n2)cc1C(=O)Nc1c(F)cccc1F [Example 55, 5-[3-(2-{[4-(1,4′-bipiperidin-1′-yl)-3-methyl-2-(methyloxy)phenyl]amino}-4-pyrimidinyl)imidazo[1,2-a]pyridin-2-yl]-N-(2,6-difluorophenyl)-2-(methyloxy)benzamide]
> 1000 | 250 to 1000 | 100 to 500 | 100 to 500 | CCOc1ccc(-c2nc3ccccn3c2-c2ccnc(Nc3ccc(N4CCC(N5CCCCC5)CC4)c(C)c3OC)n2)cc1C(=O)Nc1c(F)cccc1F [Example 56, 5-[3-(2-{[4-(1,4′-bipiperidin-1′-yl)-3-methyl-2-(methyloxy)phenyl]amino}-4-pyrimidinyl)imidazo[1,2-a]pyridin-2-yl]-N-(2,6-difluorophenyl)-2-(ethyloxy)benzamide]
250 to 1000 | < 250 | < 100 | < 100 | COc1cc(N2CCC(N3CCN(CCS(C)(=O)=O)CC3)CC2)ccc1Nc1nccc(-c2c(-c3cccc(C(=O)Nc4c(F)cccc4F)c3)nc3ccccn23)n1 [Example 59, N-(2,6-difluorophenyl)-3-[3-(2-{[2-(methyloxy)-4-(4-{4-[2-(methylsulfonyl)ethyl]-1-piperazinyl}-1-piperidinyl)phenyl]amino}-4-pyrimidinyl)imidazo[1,2-a]pyridin-2-yl]benzamide]
250 to 1000 | < 250 | – | – | COc1cc(N2CCC(CCS(C)(=O)=O)CC2)ccc1Nc1nccc(-c2c(-c3ccc(OC)c(C(=O)Nc4c(F)cccc4F)c3)nc3cc(F)ccn23)n1 [Example 216, N-(2,6-difluorophenyl)-5-(7-fluoro-3-{2-[(2-(methyloxy)-4-{4-[2-(methylsulfonyl)ethyl]-1-piperidinyl}phenyl)amino]-4-pyrimidinyl}imidazo[1,2-a]pyridin-2-yl)-2-(methyloxy)benzamide]
250 to 1000 | < 250 | – | – | CCOc1cc(N2CCC(CCS(C)(=O)=O)CC2)c(C)cc1Nc1nccc(-c2c(-c3ccc(OC)c(C(=O)Nc4c(F)cccc4F)c3)nc3cc(F)ccn23)n1 [Example 218, N-(2,6-difluorophenyl)-5-(3-{2-[(2-(ethyloxy)-5-methyl-4-{4-[2-(methylsulfonyl)ethyl]-1-piperidinyl}phenyl)amino]-4-pyrimidinyl}-7-fluoroimidazo[1,2-a]pyridin-2-yl)-2-(methyloxy)benzamide]
250 to 1000 | < 250 | – | – | COc1cc(N2CCC(CCS(C)(=O)=O)CC2)c(C)cc1Nc1nccc(-c2c(-c3ccc(OC)c(C(=O)Nc4c(F)cccc4F)c3)nc3cc(F)ccn23)n1 [Example 220, N-(2,6-difluorophenyl)-5-(7-fluoro-3-{2-[(5-methyl-2-(methyloxy)-4-{4-[2-(methylsulfonyl)ethyl]-1-piperidinyl}phenyl)amino]-4-pyrimidinyl}imidazo[1,2-a]pyridin-2-yl)-2-(methyloxy)benzamide]
– | < 250 | < 100 | < 100 | COc1cc(N2CCC(CCS(C)(=O)=O)CC2)c(C)cc1Nc1nccc(-c2c(-c3cccc(C(=O)Nc4c(F)cccc4F)c3)nc3ccccn23)n1 [Example 231, N-(2,6-difluorophenyl)-3-(3-{2-[(5-methyl-2-(methyloxy)-4-{4-[2-(methylsulfonyl)ethyl]-1-piperidinyl}phenyl)amino]-4-pyrimidinyl}imidazo[1,2-a]pyridin-2-yl)benzamide]
< 250 | < 250 | – | – | CCOc1cc(N2CCN(CCS(C)(=O)=O)CC2)c(C)cc1Nc1nccc(-c2c(-c3ccc(OC)c(C(=O)Nc4c(F)cccc4F)c3)nc3ccccn23)n1 [Example 247, N-(2,6-difluorophenyl)-5-(3-{2-[(2-(ethyloxy)-5-methyl-4-[4-[2-(methylsulfonyl)ethyl]-1-piperazinyl}phenyl)amino]-4-pyrimidinyl}imidazo[1,2-a]pyridin-2-yl)-2-(methyloxy)benzamide]
< 250 | < 250 | – | – | CCOc1cc(N2CCN(CCS(C)(=O)=O)CC2)c(C)cc1Nc1nccc(-c2c(-c3ccc(OC(C)C)c(C(=O)Nc4c(F)cccc4F)c3)nc3ccccn23)n1 [Example 249, N-(2,6-difluorophenyl)-5-(3-{2-[(2-(ethyloxy)-5-methyl-4-{4-[2-(methylsulfonyl)ethyl]-1-piperazinyl}phenyl)amino]-4-pyrimidinyl}imidazo[1,2-a]pyridin-2-yl)-2-[(1-methylethyl)oxy]benzamide]
